The target in test [1] is T1, Alpha-2A adrenergic receptor (Homo sapiens, UniProt P08913).
T1 sequence (P08913 whole entry): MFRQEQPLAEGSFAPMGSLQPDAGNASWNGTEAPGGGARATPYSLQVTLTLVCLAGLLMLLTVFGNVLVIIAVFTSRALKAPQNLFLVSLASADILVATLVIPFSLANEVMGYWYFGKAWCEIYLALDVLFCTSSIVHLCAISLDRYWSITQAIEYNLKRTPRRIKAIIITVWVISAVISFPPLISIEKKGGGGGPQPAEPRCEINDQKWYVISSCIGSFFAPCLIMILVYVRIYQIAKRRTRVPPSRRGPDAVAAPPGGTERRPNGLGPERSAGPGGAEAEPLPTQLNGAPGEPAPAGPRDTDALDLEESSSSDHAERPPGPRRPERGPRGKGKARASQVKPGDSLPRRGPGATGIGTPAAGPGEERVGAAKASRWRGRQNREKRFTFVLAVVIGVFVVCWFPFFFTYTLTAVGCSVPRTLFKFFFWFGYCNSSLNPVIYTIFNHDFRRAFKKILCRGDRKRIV
In kind it is functional, cell-based.

Test [2] has as its target Gamma-aminobutyric acid receptor subunit alpha-1 (Rattus norvegicus, UniProt P62813). In kind it is functional.
Test [3] addresses T2, Muscarinic acetylcholine receptor M2 (Homo sapiens, UniProt P08172).
T2 sequence (P08172 whole entry): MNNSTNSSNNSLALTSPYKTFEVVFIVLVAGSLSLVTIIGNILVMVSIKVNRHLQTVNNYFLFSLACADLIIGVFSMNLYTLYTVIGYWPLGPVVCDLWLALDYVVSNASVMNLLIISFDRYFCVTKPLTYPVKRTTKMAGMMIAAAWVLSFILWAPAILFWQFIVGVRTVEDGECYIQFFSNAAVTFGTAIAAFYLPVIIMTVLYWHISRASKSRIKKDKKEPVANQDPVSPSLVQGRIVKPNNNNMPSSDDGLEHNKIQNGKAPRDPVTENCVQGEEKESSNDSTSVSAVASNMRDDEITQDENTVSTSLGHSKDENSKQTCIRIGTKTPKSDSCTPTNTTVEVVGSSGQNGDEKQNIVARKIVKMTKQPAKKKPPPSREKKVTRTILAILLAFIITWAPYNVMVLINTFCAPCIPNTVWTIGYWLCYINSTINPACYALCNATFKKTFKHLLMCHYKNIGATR
It counts as functional, cell-based.

For test [4], the target named is Voltage-gated inwardly rectifying potassium channel KCNH2 (Homo sapiens, UniProt Q12809). In kind it is functional. The following applies: read-out: AC50.
The next test has as its target Motilin receptor (Homo sapiens, UniProt O43193).
Test [5] concerns the target cGMP-inhibited 3',5'-cyclic phosphodiesterase 3A (Homo sapiens, UniProt Q14432). It counts as functional.
Test [6] concerns the target Growth hormone secretagogue receptor type 1 (Homo sapiens, UniProt Q92847).
Test [7] addresses T3, 5-hydroxytryptamine receptor 1A (Homo sapiens, UniProt P08908).
T3 sequence (P08908 whole entry): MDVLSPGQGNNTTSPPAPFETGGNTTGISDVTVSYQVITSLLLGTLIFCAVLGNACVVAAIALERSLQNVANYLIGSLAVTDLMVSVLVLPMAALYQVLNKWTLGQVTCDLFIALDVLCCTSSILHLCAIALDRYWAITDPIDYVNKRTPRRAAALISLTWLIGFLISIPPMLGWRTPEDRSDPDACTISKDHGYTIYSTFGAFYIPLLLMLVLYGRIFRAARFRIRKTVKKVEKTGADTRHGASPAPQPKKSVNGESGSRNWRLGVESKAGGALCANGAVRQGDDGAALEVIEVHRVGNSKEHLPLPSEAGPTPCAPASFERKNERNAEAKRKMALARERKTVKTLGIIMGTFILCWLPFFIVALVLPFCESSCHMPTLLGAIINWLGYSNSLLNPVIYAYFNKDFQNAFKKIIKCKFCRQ
In kind it is functional, cell-based.

For test [8], the target named is T4, 5-hydroxytryptamine receptor 3A (Homo sapiens, UniProt P46098).
T4 sequence (P46098 whole entry): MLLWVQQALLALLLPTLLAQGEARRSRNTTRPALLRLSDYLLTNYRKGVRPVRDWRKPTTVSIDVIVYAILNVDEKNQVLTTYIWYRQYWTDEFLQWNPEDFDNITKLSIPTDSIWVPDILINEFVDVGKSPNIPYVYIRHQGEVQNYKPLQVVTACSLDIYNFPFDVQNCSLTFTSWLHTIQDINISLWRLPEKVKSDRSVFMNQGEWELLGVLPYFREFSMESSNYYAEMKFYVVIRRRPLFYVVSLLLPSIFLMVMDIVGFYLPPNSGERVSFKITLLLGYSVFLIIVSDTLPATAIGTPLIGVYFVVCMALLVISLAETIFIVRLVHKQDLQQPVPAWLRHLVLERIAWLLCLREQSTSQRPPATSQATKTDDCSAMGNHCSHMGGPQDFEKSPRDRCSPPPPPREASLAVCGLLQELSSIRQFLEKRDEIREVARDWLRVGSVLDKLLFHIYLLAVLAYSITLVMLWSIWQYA
In kind it is functional.

The next test concerns the target Adenosine receptor A2a (Homo sapiens, UniProt P29274).
In test [9] the target is T5, Prostaglandin G/H synthase 1 (Rattus norvegicus, UniProt Q63921).
T5 sequence (Q63921 whole entry): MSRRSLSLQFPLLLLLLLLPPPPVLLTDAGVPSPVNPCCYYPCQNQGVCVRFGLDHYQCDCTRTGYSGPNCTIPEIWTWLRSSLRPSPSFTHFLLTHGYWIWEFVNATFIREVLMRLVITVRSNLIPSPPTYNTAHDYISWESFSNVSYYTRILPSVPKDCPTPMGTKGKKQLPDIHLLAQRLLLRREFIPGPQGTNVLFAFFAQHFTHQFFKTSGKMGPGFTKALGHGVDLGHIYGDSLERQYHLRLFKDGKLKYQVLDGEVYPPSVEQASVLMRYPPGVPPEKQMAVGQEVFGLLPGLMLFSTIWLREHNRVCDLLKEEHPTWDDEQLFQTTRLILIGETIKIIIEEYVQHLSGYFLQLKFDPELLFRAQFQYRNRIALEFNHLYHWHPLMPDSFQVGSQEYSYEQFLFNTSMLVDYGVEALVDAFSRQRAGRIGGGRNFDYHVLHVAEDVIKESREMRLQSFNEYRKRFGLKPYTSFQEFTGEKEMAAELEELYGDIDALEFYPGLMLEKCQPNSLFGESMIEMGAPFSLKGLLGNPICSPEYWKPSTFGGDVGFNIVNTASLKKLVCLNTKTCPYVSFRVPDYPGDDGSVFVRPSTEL
It counts as functional.

What is called AC50 is the concentration at which the activity in the assay is half-maximal.
Note: assay procedure not described here.

Chain of cGMP-inhibited 3',5'-cyclic phosphodiesterase 3A (Q14432 whole entry): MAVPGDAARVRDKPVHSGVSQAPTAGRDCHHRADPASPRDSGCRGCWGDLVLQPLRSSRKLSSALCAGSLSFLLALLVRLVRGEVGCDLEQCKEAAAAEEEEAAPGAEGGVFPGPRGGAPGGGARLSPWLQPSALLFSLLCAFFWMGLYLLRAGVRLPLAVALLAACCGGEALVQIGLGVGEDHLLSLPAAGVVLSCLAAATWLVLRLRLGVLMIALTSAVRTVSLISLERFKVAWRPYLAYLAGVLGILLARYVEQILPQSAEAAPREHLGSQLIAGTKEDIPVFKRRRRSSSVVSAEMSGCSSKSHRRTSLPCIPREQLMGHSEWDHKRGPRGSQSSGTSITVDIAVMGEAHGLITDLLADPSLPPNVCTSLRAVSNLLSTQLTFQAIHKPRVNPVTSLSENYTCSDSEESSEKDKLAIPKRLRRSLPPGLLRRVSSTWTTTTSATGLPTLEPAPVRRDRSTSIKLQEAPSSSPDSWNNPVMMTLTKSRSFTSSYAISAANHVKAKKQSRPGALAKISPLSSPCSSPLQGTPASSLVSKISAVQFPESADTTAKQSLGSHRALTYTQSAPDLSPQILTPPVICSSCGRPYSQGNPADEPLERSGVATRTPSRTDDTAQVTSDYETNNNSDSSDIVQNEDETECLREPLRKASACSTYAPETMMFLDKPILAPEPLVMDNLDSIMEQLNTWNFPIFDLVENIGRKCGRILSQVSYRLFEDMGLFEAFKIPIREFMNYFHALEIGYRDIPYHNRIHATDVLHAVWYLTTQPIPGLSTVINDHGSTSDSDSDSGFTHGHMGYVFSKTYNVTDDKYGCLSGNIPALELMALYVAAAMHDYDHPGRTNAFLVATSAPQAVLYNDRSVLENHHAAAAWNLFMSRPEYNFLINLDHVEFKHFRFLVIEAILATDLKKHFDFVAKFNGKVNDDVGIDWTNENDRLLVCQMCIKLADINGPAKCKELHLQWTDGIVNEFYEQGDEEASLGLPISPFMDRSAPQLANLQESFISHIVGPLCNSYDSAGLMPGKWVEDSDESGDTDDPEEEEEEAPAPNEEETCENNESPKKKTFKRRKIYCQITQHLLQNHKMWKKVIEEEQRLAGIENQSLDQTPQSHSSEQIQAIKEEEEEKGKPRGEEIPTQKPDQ
Chain of Adenosine receptor A2a (P29274 whole entry): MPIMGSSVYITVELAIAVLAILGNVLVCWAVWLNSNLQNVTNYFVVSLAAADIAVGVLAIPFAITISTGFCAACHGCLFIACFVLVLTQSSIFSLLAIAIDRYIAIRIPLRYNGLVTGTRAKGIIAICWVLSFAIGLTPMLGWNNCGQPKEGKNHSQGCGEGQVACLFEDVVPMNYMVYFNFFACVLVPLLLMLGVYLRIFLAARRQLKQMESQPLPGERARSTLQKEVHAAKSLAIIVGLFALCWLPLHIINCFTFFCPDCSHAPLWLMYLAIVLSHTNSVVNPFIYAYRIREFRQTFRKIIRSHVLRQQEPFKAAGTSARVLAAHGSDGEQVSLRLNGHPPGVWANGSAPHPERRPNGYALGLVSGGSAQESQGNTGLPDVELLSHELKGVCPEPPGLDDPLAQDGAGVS
Chain of Motilin receptor (O43193 whole entry): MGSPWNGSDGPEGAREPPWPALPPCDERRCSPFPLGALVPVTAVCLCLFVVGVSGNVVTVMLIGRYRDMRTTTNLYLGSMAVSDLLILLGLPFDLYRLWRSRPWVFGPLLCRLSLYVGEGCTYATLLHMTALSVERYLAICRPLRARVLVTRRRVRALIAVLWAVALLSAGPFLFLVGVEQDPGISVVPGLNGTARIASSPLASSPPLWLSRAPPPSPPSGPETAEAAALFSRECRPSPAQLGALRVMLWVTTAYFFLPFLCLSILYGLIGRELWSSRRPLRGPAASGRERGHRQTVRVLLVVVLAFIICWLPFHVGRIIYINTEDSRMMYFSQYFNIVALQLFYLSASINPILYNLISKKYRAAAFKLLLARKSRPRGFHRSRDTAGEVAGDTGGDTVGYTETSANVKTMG
Chain of Gamma-aminobutyric acid receptor subunit alpha-1 (P62813 whole entry): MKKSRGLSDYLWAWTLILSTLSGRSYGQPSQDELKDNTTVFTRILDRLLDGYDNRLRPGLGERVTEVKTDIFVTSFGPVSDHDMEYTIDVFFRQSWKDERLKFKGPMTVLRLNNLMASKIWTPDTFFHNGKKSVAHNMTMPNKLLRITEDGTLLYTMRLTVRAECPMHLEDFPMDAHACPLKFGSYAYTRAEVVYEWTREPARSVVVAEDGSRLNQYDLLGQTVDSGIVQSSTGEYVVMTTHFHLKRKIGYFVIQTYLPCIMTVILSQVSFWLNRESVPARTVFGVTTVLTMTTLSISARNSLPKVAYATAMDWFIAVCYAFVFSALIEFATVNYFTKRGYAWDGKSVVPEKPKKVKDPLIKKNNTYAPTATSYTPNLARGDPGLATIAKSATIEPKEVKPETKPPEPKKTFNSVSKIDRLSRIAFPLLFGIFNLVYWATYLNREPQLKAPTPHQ
Chain of Voltage-gated inwardly rectifying potassium channel KCNH2 (Q12809 whole entry): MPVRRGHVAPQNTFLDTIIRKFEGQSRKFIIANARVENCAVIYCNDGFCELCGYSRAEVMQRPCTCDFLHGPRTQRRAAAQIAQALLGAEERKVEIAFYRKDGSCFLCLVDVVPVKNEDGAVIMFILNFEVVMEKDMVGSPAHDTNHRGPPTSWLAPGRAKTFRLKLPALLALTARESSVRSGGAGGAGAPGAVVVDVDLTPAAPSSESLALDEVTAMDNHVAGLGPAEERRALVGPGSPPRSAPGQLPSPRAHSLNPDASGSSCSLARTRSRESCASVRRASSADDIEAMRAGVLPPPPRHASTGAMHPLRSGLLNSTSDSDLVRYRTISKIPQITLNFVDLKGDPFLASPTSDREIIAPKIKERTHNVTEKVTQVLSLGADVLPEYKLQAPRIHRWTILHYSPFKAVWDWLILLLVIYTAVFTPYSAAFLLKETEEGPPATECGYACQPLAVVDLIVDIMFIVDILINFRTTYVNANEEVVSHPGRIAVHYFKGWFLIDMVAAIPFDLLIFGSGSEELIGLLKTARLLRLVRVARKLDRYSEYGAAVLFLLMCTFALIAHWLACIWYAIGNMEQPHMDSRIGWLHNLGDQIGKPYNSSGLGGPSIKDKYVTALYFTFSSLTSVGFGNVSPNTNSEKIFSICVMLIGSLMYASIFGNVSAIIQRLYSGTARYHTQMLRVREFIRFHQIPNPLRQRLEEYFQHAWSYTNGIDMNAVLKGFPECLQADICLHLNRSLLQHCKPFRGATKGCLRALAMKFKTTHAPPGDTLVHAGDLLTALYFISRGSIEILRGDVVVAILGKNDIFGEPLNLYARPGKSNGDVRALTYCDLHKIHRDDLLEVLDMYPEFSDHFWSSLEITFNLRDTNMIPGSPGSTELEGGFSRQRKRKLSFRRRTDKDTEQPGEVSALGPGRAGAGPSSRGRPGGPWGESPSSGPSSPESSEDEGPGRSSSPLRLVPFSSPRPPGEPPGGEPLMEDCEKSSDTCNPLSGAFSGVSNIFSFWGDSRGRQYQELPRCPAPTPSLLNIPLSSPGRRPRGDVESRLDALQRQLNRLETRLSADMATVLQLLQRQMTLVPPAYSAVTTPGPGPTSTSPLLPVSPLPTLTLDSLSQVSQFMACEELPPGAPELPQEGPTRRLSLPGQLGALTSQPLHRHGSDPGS
Chain of Growth hormone secretagogue receptor type 1 (Q92847 whole entry): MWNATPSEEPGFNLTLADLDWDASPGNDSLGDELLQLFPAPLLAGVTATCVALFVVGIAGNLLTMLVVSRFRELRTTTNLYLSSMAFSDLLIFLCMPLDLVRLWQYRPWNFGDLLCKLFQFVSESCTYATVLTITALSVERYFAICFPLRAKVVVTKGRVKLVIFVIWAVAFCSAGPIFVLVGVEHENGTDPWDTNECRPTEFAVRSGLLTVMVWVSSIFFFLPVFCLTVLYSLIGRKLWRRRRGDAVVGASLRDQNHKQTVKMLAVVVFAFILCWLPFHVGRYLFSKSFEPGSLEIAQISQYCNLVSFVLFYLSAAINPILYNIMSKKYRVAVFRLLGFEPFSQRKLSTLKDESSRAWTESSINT

Regarding `CCC(C)n1ncn(-c2ccc(N3CCN(c4ccc(OCC5COC(Cn6cncn6)(c6ccc(Cl)cc6Cl)O5)cc4)CC3)cc2)c1=O` (stereo unspecified) [ITRACONAZOLE], the AC50 (in test [1]; in test [2]; in test [3]; in test [4]; at Motilin receptor; in [5]) was greater than 30 µM in each case. The AC50 (in [6]; in test [7]; in [8]; on Adenosine receptor A2a; in [9]) was greater than 30 µM throughout.
As for `c1ccc([C@H]2CN3CCSC3=N2)cc1` [LEVAMISOLE], the AC50 in [1] was greater than 30 µM; in [2] it was greater than 30 µM; in test [3], greater than 30 µM; in [4], 18.8 µM; at Motilin receptor, greater than 30 µM; in test [5], greater than 30 µM. Further, the AC50 (in [6]; in [7]; in [8]; on Adenosine receptor A2a; in [9]) was greater than 30 µM throughout.
Consider `C[C@H]1CNCCc2ccc(Cl)cc21` [LORCASERIN], for which the AC50 in test [1] is 7.2 µM; in test [2] it was greater than 30 µM; in test [3] it was greater than 30 µM; in test [4] it was 6.5 µM; on Motilin receptor, greater than 30 µM; in test [5], greater than 30 µM. In addition, the concentration at half-maximal activity (AC50) (in test [6]; in test [7]; in [8]; at Adenosine receptor A2a; in test [9]) was greater than 30 µM throughout.
Consider `CN1C(C(=O)Nc2ccccn2)=C(O)c2sc(Cl)cc2S1(=O)=O` [LORNOXICAM], for which the AC50 is greater than 10 µM in [1]; greater than 10 µM in [2]; greater than 10 µM in test [3]; greater than 30 µM in test [4]; greater than 10 µM on Motilin receptor; greater than 30 µM in test [5]. The concentration at half-maximal activity (AC50) in test [6] is greater than 30 µM; in test [7] it was greater than 10 µM; in test [8], greater than 30 µM; on Adenosine receptor A2a, greater than 30 µM; in test [9] it was 22 µM.
For the molecule `Cc1cccc(Nc2ccccc2C(=O)O)c1C` [MEFENAMIC ACID], the AC50 was greater than 10 µM in test [1]; greater than 10 µM in [2]; greater than 10 µM in test [3]; greater than 30 µM in test [4]; greater than 10 µM on Motilin receptor; greater than 30 µM in [5]. The AC50 in [6] was greater than 10 µM; in [7] it was greater than 10 µM; in test [8] it was greater than 30 µM; at Adenosine receptor A2a, greater than 10 µM; in test [9], 0.26 µM.
With `C[C@@H](O)[C@H]1C(=O)N2C(C(=O)O)=C(S[C@@H]3CN[C@H](C(=O)N(C)C)C3)[C@H](C)[C@H]12` [MEROPENEM], the AC50 in test [1] is greater than 300 µM; in [2], greater than 10 µM; in test [3], greater than 300 µM; in test [4], greater than 30 µM; on Motilin receptor it was greater than 300 µM; in test [5], greater than 300 µM. Also, the AC50 is greater than 300 µM in [6]; greater than 300 µM in test [7]; greater than 300 µM in test [8]; greater than 300 µM on Adenosine receptor A2a; 33.4 µM in test [9].
For `CNC1Cc2ccccc2N(C)c2ccccc21` (stereo unspecified) [METAPRAMINE], the half-maximal activity concentration (AC50) is 3.2 µM in test [1]; greater than 30 µM in [2]; greater than 30 µM in test [3]; 5.9 µM in test [4]; greater than 30 µM at Motilin receptor; greater than 30 µM in [5]. In addition, the AC50 was greater than 30 µM in [6]; greater than 10 µM in test [7]; greater than 30 µM in test [8]; greater than 30 µM on Adenosine receptor A2a; greater than 30 µM in [9].
Turning to `Clc1ccc(C(c2ccccc2Cl)C(Cl)Cl)cc1` (stereo unspecified) [MITOTANE], the AC50 was greater than 10 µM in [1]; greater than 10 µM in test [2]; greater than 10 µM in test [3]; greater than 30 µM in [4]; greater than 10 µM on Motilin receptor; greater than 30 µM in test [5]. For the same molecule, the AC50 in test [6] is greater than 10 µM; in [7], greater than 10 µM; in test [8], greater than 30 µM; at Adenosine receptor A2a, greater than 10 µM; in test [9], greater than 10 µM.
For `CC1(C)NC(=O)N(c2ccc([N+](=O)[O-])c(C(F)(F)F)c2)C1=O` [NILUTAMIDE], the AC50 (in [1]; in test [2]; in test [3]; in [4]; on Motilin receptor; in [5]) was greater than 30 µM each time. Besides, the AC50 (in [6]; in test [7]; in test [8]; on Adenosine receptor A2a; in [9]) was greater than 30 µM each time.
On to `Cc1nc([N+](=O)[O-])cn1-c1ccc([N+](=O)[O-])cc1` [NITREFAZOLE], for which the AC50 (in test [1]; in [2]; in [3]; in test [4]; at Motilin receptor; in test [5]) was greater than 30 µM throughout. The AC50 (in test [6]; in test [7]; in [8]; at Adenosine receptor A2a; in test [9]) was greater than 30 µM in each case.
For the molecule `CC[C@H]1[C@@H](O)[C@@H]2[C@H](CC[C@]3(C)[C@@H]([C@H](C)CCC(=O)O)CC[C@@H]23)[C@@]2(C)CC[C@@H](O)C[C@@H]12` [OBETICHOLIC ACID], the AC50 is 11 µM in test [1]; greater than 30 µM in test [2]; greater than 30 µM in test [3]; greater than 30 µM in [4]; greater than 30 µM at Motilin receptor; greater than 30 µM in test [5]. Besides, the AC50 was greater than 30 µM in test [6]; greater than 30 µM in test [7]; greater than 30 µM in test [8]; greater than 30 µM at Adenosine receptor A2a; 27 µM in test [9].

The values are drawn from ChEMBL document CHEMBL5291721, “A preclinical secondary pharmacology resource illuminates target-adverse drug reaction associations of marketed drugs” (Nat Commun, 2023).
